Reference: patent US20160214958A1, “COMPOUNDS AND USE FOR TREATING CANCER” (GLIONOVA AB, priority 2013, published 2016)
Like-named read-outs stand apart in the source and are kept apart here.

Key:
[1] = tested on: glioma stem cell line U3013; test: In vitro cancer cell and CSC viability assay (ATP quantification, CellTiterGlo); type: cell-based, human
Method: The ability of Examples S1-S23 to selectively induce cytotoxicity in glioma/glioblastoma cancer cells or glioma/glioblastoma cancer stem cells was determined by quantification of ATP production in glioma stem cell line U3013 in the presence of using CellTiterGlo reagent (Promega). Cells were exposed to compound in serial dilution in the range 1 nM to 50 µM for 24 hours and viability assessed with respect to negative control (dmso, no cell death) and positive control (staurosporine, full cell death). […] The EC50 of S10 remained largely similar at 2, 3 and 4 days of incubation. […] The individual isomers (S21-S23) of racemic S10 were evaluated in order to determine the enantiospecific pharmacology of the individual isomers.
Negative (100% DMSO) and positive (10 mM S10 in 100% DMSO) controls were placed in rows 1-4 and 5-8, respectively, of column 12. The wells were diluted with 190 μl of the corresponding growth media and 5 μl of each well of compound solution transferred to quadruplicate wells of a sterile 384-well black clear bottom plate (BD Falcon) containing GSC at 70% confluency in 45 μl growth media. The plate was incubated for 24 hours, after which the plate was removed from the incubator and each well imaged in bright-field using an Operetta Imaging system (PerkinElmer) at 37° C. and 5% CO2 to determine vacuole accumulation at each concentration. The plate was then allowed to cool to room temperature and each well treated with 25 μl freshly CellTiterGlo (Promega) reagent. The plate was shaken for 15 minutes and luminescence measured using a Victor3 (Perkin Elmer) microtiterplate reader. Total luminescence was normalized relative to control and curve fitting performed using GraphPad Prism (v6.02) software.

U87 glioma cell = conditions: at concentrations of 10 micromolar; cited from earlier work
[2] = Pharmacokinetic evaluation of Vacquinol-1 stereoisomers, plasma and brain; type: in vivo, NMRI (SR/RS) or BALB/c (Vrac) mice
Method: The pharmacokinetics of Vacquinol-1 (racemic), Vacquinol-1RS and Vacquinol-1SR, were determined in NMRI (SR/RS) or BALB/c (Vrac) mice following single intravenous (i.v.) or per oral (p.o) administration of 2 or 20 mg/kg Vacquinol-1, respectively. Blood and brain samples were taken from animals at the following nominal time points: 15, 30, and 60 minutes, and 2, 4, 6, 8, 24, 48, 72 and 144 hours after dosing (n=3/time-point). Bioanalytical quantification of Vacquinol-1 was analysed in plasma and brain samples by a UPLC-MS/MS.
Pharmacokinetics were calculated by non-compartmental analysis (NCA) from composite (mean) profiles. Nominal sampling times and dose levels have been used for the NCA calculations.

[3] = tested on: glioma stem cell line U3013; test: In vitro cancer cell and CSC viability assay (ATP quantification, CellTiterGlo); type: cell-based; conditions: Homo sapiens; 3000 cells/cm2, after 24 hours; read-out: EC50, viability of GSCs

O[C@@H](c1cc(C(F)(F)F)nc2c(C(F)(F)F)cccc12)[C@H]1CCCCN1 (racemic) [mefloquine, (2,8-bis(trifluoromethyl)quinolin-4-yl)(piperidin-2-yl)methanol, reference compound]
IC95 for cell death ([1]; glioblastoma cells (U3013)): 25.2 µM
reduction of U87 glioma cell viability (U87 glioma cell): roughly 50%

O[C@@H](c1cc(-c2ccc(Cl)cc2)nc2ccccc12)[C@H]1CCCCN1 [Compound S21, (S)-(2-(4-chlorophenyl)quinolin-4-yl)((R)-piperidin-2-yl)methanol]
EC50 ([1]; Homo sapiens, U3013, 24 hours exposure, read-out: In vitro efficacy (viability) EC50): 2670 nM
potency with respect to S10 (viability) ([1]; individual isomers of racemic S10): equal or increased potency
AUClast Plasma ([2]; 2 mg/kg i.v., mice): 14100 ng·h/mL
Cmax Brain ([2]; 2 mg/kg i.v., mice): 777 ng/mL
tlast Brain ([2]; 2 mg/kg i.v., mice): 72 h
tlast Plasma ([2]; 2 mg/kg i.v., mice): 72 h
AUClast Brain ([2]; 20 mg/kg p.o., mice): 157 µg·h/mL
AUClast Plasma ([2]; 20 mg/kg p.o., mice): 183000 ng·h/mL
Cmax Brain ([2]; 20 mg/kg p.o., mice): 1490 ng/mL
tlast Brain ([2]; 20 mg/kg p.o., mice): 144 h
tlast Plasma ([2]; 20 mg/kg p.o., mice): 144 h
Kp ([2]; NMRI (single stereoisomers SR/RS), BALB/c (racemate), mouse, brain and plasma, 20 mg/kg, after oral dosing, read-out: Cmax exposures ratio (Cmax(brain)/Cmax(plasma))): 0.7
AUC(0-t) ([2]; NMRI (single stereoisomers SR/RS), BALB/c (racemate), mouse, brain, iv, 2 mg/kg i.v., mice, read-out: AUClast Brain): 9050 ng·h/mL

Cn1nnc2c(C(N)=O)ncn2c1=O [temozolomide, reference compound]
EC50 [3]: 139 µM
